Experimental data published in ChEMBL document CHEMBL3608269, “Triazole-Linked Glycolipids Enhance the Susceptibility of MRSA to β-Lactam Antibiotics” (ACS Med Chem Lett, 2015).
In brackets after ≈: the same amount, converted by molar mass. Activity calls are given as the source filed them. The rule behind the calls is not given here.

Key:
[1] = test system: Staphylococcus aureus; test: Potentiation of oxacillin-mediated antibacterial activity against methicillin-resistant Staphylococcus aureus R50 clinical isolate at 16 ug/ml after 20 to 24 hrs by CLSI method; type: functional
[2] = test system: Staphylococcus aureus; test: Potentiation of carbenicillin-mediated antibacterial activity against methicillin-resistant Staphylococcus aureus ATCC 43300 assessed as decrease in carbenicillin MIC at 32 ug/ml by checkerboard method relative to control; type: functional
[3] = test system: Staphylococcus aureus; test: Antibacterial activity against methicillin-resistant Staphylococcus aureus ATCC 43300 after 20 to 24 hrs by CLSI method; type: functional
[4] = test system: Staphylococcus aureus; test: Downregulation of mecA mRNA expression in methicillin-resistant Staphylococcus aureus ATCC 43300 at 32 ug/ml after 4 hrs by RT-PCR analysis; type: functional, organism-based
[5] = test system: Staphylococcus aureus; test: Potentiation of oxacillin-mediated antibacterial activity against methicillin-resistant Staphylococcus aureus ATCC 43300 assessed as appearance of rougher bacterial surface at 32 ug/ml after 4 hrs by scanning electron microscopic analysis; type: functional, organism-based
[6] = test system: Staphylococcus aureus; test: Potentiation of cefoperazone mediated antibacterial activity against methicillin-resistant Staphylococcus aureus ATCC 43300 assessed as decrease in cefoperazone MIC at 32 ug/ml by checkerboard method relative to control; type: functional
[7] = test system: Staphylococcus aureus; test: Potentiation of oxacillin-mediated antibacterial activity against methicillin-resistant Staphylococcus aureus R313 clinical isolate assessed as decrease in oxacillin MIC at 32 ug/ml after 20 to 24 hrs by CLSI method relative to control; type: functional
[8] = test system: Staphylococcus aureus; test: Potentiation of oxacillin-mediated antibacterial activity against methicillin-resistant Staphylococcus aureus R53 clinical isolate at 16 ug/ml after 20 to 24 hrs by CLSI method; type: functional
[9] = test system: Staphylococcus aureus; test: Potentiation of oxacillin-mediated antibacterial activity against methicillin-resistant Staphylococcus aureus R50 clinical isolate assessed as decrease in oxacillin MIC at 16 ug/ml after 20 to 24 hrs by CLSI method relative to control; type: functional
[10] = test system: HEK293; test: Cytotoxicity against HEK293 cells assessed as cell viability at 8 to 128 ug/ml by MTS assay; type: cell-based; conditions: human
[11] = test system: Staphylococcus aureus; test: Potentiation of oxacillin-mediated antibacterial activity against methicillin-resistant Staphylococcus aureus R308 clinical isolate at 32 ug/ml after 20 to 24 hrs by CLSI method; type: functional
[12] = test system: Staphylococcus aureus; test: Antibacterial activity against methicillin-resistant Staphylococcus aureus ATCC 43300 assessed as change in bacterial surface at 32 ug/ml after 4 hrs by scanning electron microscopic analysis; type: functional, organism-based
[13] = test system: Staphylococcus aureus; test: Potentiation of oxacillin-mediated antibacterial activity against methicillin-resistant Staphylococcus aureus R304 clinical isolate at 32 ug/ml after 20 to 24 hrs by CLSI method; type: functional
[14] = test system: Staphylococcus aureus; test: Potentiation of oxacillin-mediated antibacterial activity against methicillin-resistant Staphylococcus aureus R302 clinical isolate assessed as decrease in oxacillin MIC at 32 ug/ml after 20 to 24 hrs by CLSI method relative to control; type: functional
[15] = test system: Staphylococcus aureus; test: Potentiation of oxacillin-mediated antibacterial activity against methicillin-resistant Staphylococcus aureus ATCC 43300 assessed as growth inhibition at 32 ug/ml after 24 hrs by epsilometer test; type: functional, organism-based
[16] = test system: Staphylococcus aureus; test: Potentiation of oxacillin-mediated antibacterial activity against methicillin-resistant Staphylococcus aureus R313 clinical isolate at 32 ug/ml after 20 to 24 hrs by CLSI method; type: functional
[17] = test system: Staphylococcus aureus; test: Potentiation of cefotaxime mediated antibacterial activity against methicillin-resistant Staphylococcus aureus ATCC 43300 assessed as decrease in cefotaxime MIC at 32 ug/ml by checkerboard method relative to control; type: functional
[18] = test system: Staphylococcus aureus; test: Potentiation of cefmetazole-mediated antibacterial activity against methicillin-resistant Staphylococcus aureus ATCC 43300 assessed as decrease in cefmetazole MIC at 32 ug/ml by checkerboard method relative to control; type: functional
[19] = test system: Staphylococcus aureus; test: Potentiation of oxacillin-mediated antibacterial activity against methicillin-resistant Staphylococcus aureus R314 clinical isolate assessed as decrease in oxacillin MIC at 32 ug/ml after 20 to 24 hrs by CLSI method relative to control; type: functional
[20] = test system: Staphylococcus aureus; test: Cellular uptake in methicillin-resistant Staphylococcus aureus ATCC 43300 by HPLC analysis in presence of oxacillin; type: ADME, organism-based; conditions: in vivo
[21] = test system: Staphylococcus aureus; test: Potentiation of oxacillin-mediated antibacterial activity against methicillin-resistant Staphylococcus aureus ATCC 43300 assessed as decrease in oxacillin MIC at 32 ug/ml after 20 to 24 hrs by CLSI method relative to control; type: functional
[22] = test system: Staphylococcus aureus; test: Potentiation of oxacillin-mediated antibacterial activity against methicillin-resistant Staphylococcus aureus ATCC 43300 assessed as growth inhibition at 32 ug/ml measured within 6 hrs by time kill assay; type: functional, organism-based
[23] = test system: Staphylococcus aureus; test: Potentiation of cephalexin-mediated antibacterial activity against methicillin-resistant Staphylococcus aureus ATCC 43300 assessed as decrease in cephalexin MIC at 32 ug/ml by checkerboard method relative to control; type: functional
[24] = test system: Staphylococcus aureus; test: Potentiation of ceftriaxone mediated antibacterial activity against methicillin-resistant Staphylococcus aureus ATCC 43300 assessed as decrease in ceftriaxone MIC at 32 ug/ml by checkerboard method relative to control; type: functional
[25] = test system: MEF; test: Cytotoxicity against MEF assessed as cell viability at 8 to 128 ug/ml by MTS assay; type: cell-based; conditions: mouse
[26] = test system: Staphylococcus aureus; test: Potentiation of oxacillin-mediated antibacterial activity against methicillin-resistant Staphylococcus aureus R306 clinical isolate assessed as decrease in oxacillin MIC at 32 ug/ml after 20 to 24 hrs by CLSI method relative to control; type: functional
[27] = test system: Staphylococcus aureus; test: Potentiation of cefepime mediated antibacterial activity against methicillin-resistant Staphylococcus aureus ATCC 43300 assessed as decrease in cefepime MIC at 32 ug/ml by checkerboard method relative to control; type: functional
[28] = test system: Staphylococcus aureus; test: Potentiation of oxacillin-mediated antibacterial activity against methicillin-resistant Staphylococcus aureus R304 clinical isolate assessed as decrease in oxacillin MIC at 32 ug/ml after 20 to 24 hrs by CLSI method relative to control; type: functional
[29] = test system: Staphylococcus aureus; test: Potentiation of oxacillin-mediated antibacterial activity against methicillin-resistant Staphylococcus aureus R36 clinical isolate at 32 ug/ml after 20 to 24 hrs by CLSI method; type: functional
[30] = test system: Staphylococcus aureus; test: Potentiation of oxacillin-mediated antibacterial activity against methicillin-resistant Staphylococcus aureus R308 clinical isolate assessed as decrease in oxacillin MIC at 32 ug/ml after 20 to 24 hrs by CLSI method relative to control; type: functional
[31] = test system: Staphylococcus aureus; test: Potentiation of oxacillin-mediated antibacterial activity against methicillin-resistant Staphylococcus aureus R49 clinical isolate assessed as decrease in oxacillin MIC at 16 ug/ml after 20 to 24 hrs by CLSI method relative to control; type: functional
[32] = test system: Staphylococcus aureus; test: Antibacterial activity against methicillin-resistant Staphylococcus aureus ATCC 43300 assessed as growth inhibition at 32 ug/ml measured up to 24 hrs by time kill assay; type: functional, organism-based
[33] = test system: Staphylococcus aureus; test: Potentiation of penicillin-mediated antibacterial activity against methicillin-resistant Staphylococcus aureus ATCC 43300 assessed as decrease in penicillin MIC at 32 ug/ml by checkerboard method relative to control; type: functional
[34] = test system: Staphylococcus aureus; test: Potentiation of oxacillin-mediated antibacterial activity against methicillin-resistant Staphylococcus aureus R302 clinical isolate at 32 ug/ml after 20 to 24 hrs by CLSI method; type: functional

Question: `CCCCCCCCCCCCOCc1cn([C@@H]2O[C@H](CO)[C@@H](O)[C@H](O)[C@H]2O)nn1` was tested. Which MIC [1] did it give?
Answer: < 1 µg/mL

Question: And the “fold change (FC)” value [2]?
Answer: <=256

Question: What about the MIC [3] of the same compound?
Answer: 256 µg/mL (≈ 596 µM)

Question: What about the Activity [4] of the same compound?
Answer: Active

Question: And the Activity [5]?
Answer: Active

Question: And the “fold change (FC)” value [6]?
Answer: <=256

Question: And the MIC [7]?
Answer: 1 µg/mL

Question: What about the MIC [8] of the same compound?
Answer: < 1 µg/mL

Question: What about the MIC [9] of the same compound?
Answer: 8 µg/mL

Question: What about the Activity [10] of the same compound?
Answer: Non-toxic

Question: And the MIC [11]?
Answer: 256 µg/mL

Question: What about the Activity [12] of the same compound?
Answer: inactive

Question: What about the MIC [13] of the same compound?
Answer: 256 µg/mL

Question: And the MIC [14]?
Answer: 4 µg/mL

Question: And the “growth inhibition (GI)” value [15]?
Answer: Active

Question: What about the MIC [16] of the same compound?
Answer: 8 µg/mL

Question: And the “fold change (FC)” value [17]?
Answer: <=256

Question: And the “fold change (FC)” value [18]?
Answer: <=256

Question: What about the MIC [19] of the same compound?
Answer: 32 µg/mL

Question: What about the Drug uptake [20] of the same compound?
Answer: Active

Question: And the “fold change (FC)” value [21]?
Answer: 128

Question: What about the “growth inhibition (GI)” value [22] of the same compound?
Answer: Active

Question: And the “fold change (FC)” value [23]?
Answer: <=256

Question: What about the “fold change (FC)” value [24] of the same compound?
Answer: <=256

Question: And the Activity [25]?
Answer: Non-toxic

Question: And the MIC [26]?
Answer: 16 µg/mL

Question: And the “fold change (FC)” value [27]?
Answer: <=256

Question: What about the MIC [28] of the same compound?
Answer: 2 µg/mL

Question: And the MIC [29]?
Answer: 8 µg/mL

Question: And the MIC [30]?
Answer: 4 µg/mL

Question: And the MIC [31]?
Answer: 8 µg/mL

Question: And the “growth inhibition (GI)” value [32]?
Answer: inactive

Question: What about the “fold change (FC)” value [33] of the same compound?
Answer: <=256

Question: And the MIC [34]?
Answer: 128 µg/mL
